The values below come from PMC5355235, “FLT3 activating mutations display differential sensitivity to multiple tyrosine kinase inhibitors” (Oncotarget, 2017).

The subject of one assay is BaF3/ITD cells. Nature of the assay: MTT growth inhibition assay, BaF3 FLT3-ITD cells. In kind it is cell-based. The following applies: no IL-3, 48 h, read-out: Proliferation IC50. On the procedure:
(§1) Figure 1 Growth of AL mutants in the presence of FLT3 TKI The BaF3 AL mutants were grown in the absence of IL-3 and analyzed by treatment in increasing concentrations of FLT3 TKI for 48 hours, after which growth inhibition was assessed using the MTT assay. Means are representative of at least three independent experiments.
(§2) The cells were grown in the absence of IL3 and analyzed by treatment in increasing concentrations of FLT3 TKI for 48 hours, after which growth inhibition was assessed using the MTT assay. Each experiment was performed at least three times and representative results are shown.
(§3) Based on Trypan Blue exclusion, 2 × 10^4 viable cells were seeded in quadruplicate in a 96-well microtiter plate in the presence or absence of inhibitor for 48 h. The effect of drug activity on cell viability was measured using the 3-(4,5-Dimethylthiazol-2-yl)-2,5-diphenyltetrazolium bromide (MTT) assay according to the manufacturer's instructions (Roche Applied Science, Indianapolis, IN, USA). Following treatment, cells were incubated for 4 h in MTT followed by dissolution in solubilization buffer overnight. Absorbance was measured at 570 nm on a Bio-Rad plate reader (Hercules, CA, USA). […] Results shown are presented as means and are representative of at least three independent experiments.

Assay [1] concerns BaF3 FLT3 D835Y mutant cells. Nature of the assay: MTT growth inhibition assay, BaF3 FLT3 D835Y cells. In kind it is cell-based. The following applies: no IL-3, 48 h, read-out: Proliferation IC50. The protocol: as §1, §2, §3
On the technique in general: Tetrazolium assays rely on reduction of a dye to a coloured formazan, in cell work by metabolically active cells.

Assay [2] concerns BaF3 FLT3 D835A mutant cells. Nature of the assay: MTT growth inhibition assay, BaF3 FLT3 D835A cells. The class given is cell-based. The following applies: read-out: Proliferation IC50. On the procedure: as §1, §2, §3
Assay [3] relates to BaF3 FLT3 D835G mutant cells. In words: MTT growth inhibition assay, BaF3 FLT3 D835G cells. In kind it is cell-based. The following applies: no IL-3, 48 h, read-out: Proliferation IC50. On the procedure: as §1, §2, §3
The test system of assay [4] is BaF3 FLT3 D835N mutant cells. Nature of the assay: MTT growth inhibition assay, BaF3 FLT3 D835N cells. In kind it is cell-based. The following applies: no IL-3, 48 h, read-out: Proliferation IC50. On the procedure: as §1, §2, §3
Assay [5] relates to BaF3 FLT3 D835L+K mutant cells. In words: MTT growth inhibition assay, BaF3 FLT3 D835L+K cells. In kind it is cell-based. The following applies: no IL-3, 48 h, read-out: Proliferation IC50. On the procedure:
as §1, §2, §3

In assay [6] the test system is BaF3 FLT3 I836L+D mutant cells. In words: MTT growth inhibition assay, BaF3 FLT3 I836L+D cells. In kind it is cell-based. The following applies: no IL-3, 48 h, read-out: Proliferation IC50. On the procedure:
as §1, §2, §3

Assay [7] deals with BaF3 FLT3 I836S mutant cells. In words: MTT growth inhibition assay, BaF3 FLT3 I836S cells. The following applies: read-out: Proliferation IC50. The class given is cell-based. On the procedure: as §1, §2, §3
In assay [8] the test system is BaF3 FLT3 I836T mutant cells. Nature of the assay: MTT growth inhibition assay, BaF3 FLT3 I836T cells. The class given is cell-based. The following applies: no IL-3, 48 h, read-out: Proliferation IC50. The protocol: as §1, §2, §3
Assay [9] has as its system BaF3 FLT3 840G+S mutant cells. Nature of the assay: MTT growth inhibition assay, BaF3 FLT3 840G+S cells. The following applies: no IL-3, 48 h, read-out: Proliferation IC50. In kind it is cell-based. The protocol:
as §1, §2, §3

Assay [10] has as its system BaF3 FLT3 D593D mutant cells. Nature of the assay: MTT growth inhibition assay, BaF3 FLT3 D593D cells. In kind it is cell-based. The following applies: no IL-3, 48 h, read-out: Proliferation IC50. On the procedure:
as §1, §2, §3

The next assay relates to all FLT3 AL mutants. The following applies: read-out: FLT3 autophosphorylation IC50, BaF3 cells, 1 h treatment, Western blot. On the procedure:
Activated FLT3 expression was measured by performing immunoprecipitation, SDS-PAGE and Western blotting as previously described. Specifically, 10^7 cells were washed in medium and treated with inhibitor for 1 h followed by stimulation with 25 ng/ml of FLT3 ligand for 15 minutes where indicated. Cells were washed twice with ice-cold PBS and lysed in 300 µl of NP-40 lysis buffer (150 mM NaCl, 20 mM TrisHCl (pH7.4), 10% glycerol, 1% NP-40, 10 mM EDTA, 100 mM NaF) with 2 mM Na3VO4 and protease inhibitors (Complete Tablets, Roche, Mannheim, Germany) at 4°C for 30 m. Cell lysate was harvested by centrifugation at 13,000 × g for 30 m at 4°C. FLT3 S-18 antibody was incubated with 500 µg lysate overnight at 4°C followed by immunoprecipitation with protein A-agarose beads for 2 h. Beads were washed once in Tris buffered saline with 1% Tween-20 (TBST) and twice in TBS. Samples were boiled in sodium dodecyl sulfate (SDS) sample buffer prior to separating in a 8% SDS-polyacrylamide gel (SDS-PAGE). Proteins were transferred to a polyvinyl diflouride (PVDF) membrane (Millipore, Bedford, MA, USA) and detected by 4G10 phosphotyrosine antibody and anti-FLT3 S-18 antibody. FLT3 was visualized using the Odyssey Infra Red Imaging System from Li-Cor (Lincoln, NE, USA) using AlexaFluor 680 goat anti-mouse and AlexaFluor 800 goat anti-rabbit antibodies. […]
For orientation: In western blotting, separated proteins are transferred to a membrane and probed.

The subject of the next assay is FLT3/ITD. Nature of the assay: FLT3/ITD autophosphorylation and signaling pathways, Western blot. In kind it is cell-based. The following applies: FLT3/ITD cells, 1 h, concentration-dependent. On the procedure:
Activated FLT3 expression was measured by performing immunoprecipitation, SDS-PAGE and Western blotting as previously described. Specifically, 10^7 cells were washed in medium and treated with inhibitor for 1 h followed by stimulation with 25 ng/ml of FLT3 ligand for 15 minutes where indicated. Cells were washed twice with ice-cold PBS and lysed in 300 µl of NP-40 lysis buffer (150 mM NaCl, 20 mM TrisHCl (pH7.4), 10% glycerol, 1% NP-40, 10 mM EDTA, 100 mM NaF) with 2 mM Na3VO4 and protease inhibitors (Complete Tablets, Roche, Mannheim, Germany) at 4°C for 30 m. Cell lysate was harvested by centrifugation at 13,000 × g for 30 m at 4°C. FLT3 S-18 antibody was incubated with 500 µg lysate overnight at 4°C followed by immunoprecipitation with protein A-agarose beads for 2 h. Beads were washed once in Tris buffered saline with 1% Tween-20 (TBST) and twice in TBS. Samples were boiled in sodium dodecyl sulfate (SDS) sample buffer prior to separating in a 8% SDS-polyacrylamide gel (SDS-PAGE). Proteins were transferred to a polyvinyl diflouride (PVDF) membrane (Millipore, Bedford, MA, USA) and detected by 4G10 phosphotyrosine antibody and anti-FLT3 S-18 antibody. FLT3 was visualized using the Odyssey Infra Red Imaging System from Li-Cor (Lincoln, NE, USA) using AlexaFluor 680 goat anti-mouse and AlexaFluor 800 goat anti-rabbit antibodies. Phosphorylation of the FLT3 downstream signaling mediators, STAT5, AKT and MAP kinase was investigated by loading 50 µg of whole cell lysate and probing with the indicated antibodies. The membrane was washed and incubated in goat anti-rabbit secondary antibody conjugated to horseradish peroxidase followed by enhanced chemiluminescence (ECL). The membrane was subsequently stripped in 200 mM glycine buffer, pH 2.5 with 0.1% Tween-20 and reprobed for STAT5, AKT and MAP kinase expression using the respective antibodies.

The test system of the next assay is BaF3 FLT3 D835Y cells. In words: Engraftment of BaF3 D835Y luciferase cells in BALB/c mice, bioluminescence imaging. In kind it is in vivo. The following applies: 20 mg/kg twice daily subcutaneous, day 5 to day 9. On the procedure:
On day 5 following transplantation, the level of engraftment was assessed by imaging mice for bioluminescence on an IVIS Spectrum imager. […] This experiment was repeated three times.
Cells were sorted for GFP and CD135 expression on a FACS AriaII cytometer using FACSDiva software. For engraftment, 2 ×10^6 cells were injected via tail vein into BALB/c mice (Jackson Laboratories, Bar Harbor, ME, USA) (day 0). […] [36, 37] […] Mice were imaged by intraperitoneal injection of luciferin (3 mg) and visualizing on an IVIS Spectrum imager (Caliper LifeSciences, Hopkinton, MA, USA) using Living Image software for analysis on day 5 following inoculation to monitor engraftment and on day 9 to assess drug effect. All animal procedures were conducted in accordance with the policy of the Johns Hopkins University School of Medicine Animal Care and Use Committee.

Setting [11] is: BaF3 FLT3 D835A, no IL-3, 48 h, MTT.
Where [12] appears, read: BaF3 FLT3 I836S, no IL-3, 48 h, MTT.

pIC50: −log10 of the molar value. Like-named read-outs stand apart in the source and are kept apart here. Where only a bound is given, the exact number is not on record here.

Consider `C[C@]12O[C@H](C[C@]1(O)CO)n1c3ccccc3c3c4c(c5c6ccccc6n2c5c31)CNC4=O` [Lestaurtinib], for which the pIC50 with BaF3/ITD cells (Mus musculus) was 8.07; in assay [1] (Mus musculus), 8.01; in assay [2] (Mus musculus, BaF3, 48 h), 8.30; in assay [3] (Mus musculus), 8.22; in assay [4] (Mus musculus) it was 8.12; in [5] (Mus musculus), 8.68. Besides, the pIC50 in assay [6] (Mus musculus) is 8.68; in assay [7] (Mus musculus, BaF3, 48 h), 7.82; in [8] (Mus musculus), 7.87; in [9] (Mus musculus) it was 8.10; in assay [10] (Mus musculus), 8.10; in the assay on all FLT3 AL mutants, no less than 8.30. Also, the “Inhibition of FLT3 autophosphorylation and phosphorylation of STAT5, AKT and Map kinase” value in the assay on FLT3/ITD was “inhibited FLT3 autophosphorylation”. Also, the “Leukemic burden (bioluminescence) on day 9” value in the assay with BaF3 FLT3 D835Y cells is given as “greatly reduced”.
As to `CNC(=O)[C@@]1(N)C[C@H]2O[C@]1(C)n1c3ccccc3c3c4c(c5c6ccccc6n2c5c31)C(=O)NC4` [TTT-3002], the pIC50 in the assay on BaF3/ITD cells is greater than 9.00; in assay [1] it was 8.39; in [2] (setting [11]), 8.89; in assay [3], greater than 9.00; in assay [4], greater than 9.00; in assay [5], 8.17. Besides, the pIC50 in [6] is 7.93; in assay [7] (setting [12]), 8.05; in [8] it was 8.01; in [9] it was greater than 9.00; in assay [10], 8.55.
For `CO[C@@H]1[C@H](N(C)C(=O)c2ccccc2)C[C@H]2O[C@]1(C)n1c3ccccc3c3c4c(c5c6ccccc6n2c5c31)C(=O)NC4` [Midostaurin], the pIC50 in assay [9] (Mus musculus) is 7.92.
On to `COc1cc(Nc2ncc(F)c(Nc3ccc4c(n3)NC(=O)C(C)(C)O4)n2)cc(OC)c1OC` [R406], for which the pIC50 is 6.78 in the assay on BaF3/ITD cells; less than 6.70 in assay [1]; less than 6.70 in assay [2] (setting [11]); 6.85 in assay [3]; 6.82 in assay [4]; less than 6.70 in assay [5]. The pIC50 in assay [6] was less than 6.70; in assay [7] (setting [12]) it was less than 6.70; in assay [8], 6.82; in assay [9] it was less than 6.70; in assay [10], less than 6.70.
